Patent US10952433B2, “Solutions for enhancing the effectiveness of insecticides and fungicides on living plants and related methods” (priority 2015, dated 2021)

Assays:
[1] = tested on: staining fungi (macerated fungal blend); test: Staining fungi coverage in inoculated stem wound of red oak seedlings, greenhouse (Table 6)
Procedure: In performing the tests employing ten red oak seedlings per iteration with the materials being tested applied at approximately 12 milliliters per seeding applied with a low volume hand spray. […] Seven days after application, a sterile razor blade wound of approximately 2 millimeters by 10 millimeters was created on each seedling stem. Immediately after, the wounding 1 ml of macerated fungal blend suspended in distilled water was applied to each stem wound. Twenty-eight days after wounding, the wounds were evaluated for an average percentage of staining fungi present in each seedling stem wound. Opaque black straw covering was applied to each wound. The opaque black straws were applied within about one minute after wounding and inoculation with the fungi. […] The purpose for using such straws is to facilitate the creation of a dark environment on the wound as fungi tend to like dark damp places. This is employed to enhance the effectiveness of the test by accelerating the severity of the fungal growing conditions. Each stem wound was given two ml of distilled water 10, 17, 21 and 28 days after wounding by a low volume trigger spray. All solutions were included a propylene glycol based dye at a concentration of 100:1. The greenhouse conditions were maintained at 65° F. to 85° F. and the humidity range of 30 to 80% relative humidity. The test which employed the combination of thiabendazole, fludioxonil and azoxystrobin was obtained as a formulated pesticide product which was available under the trade designation “Sporgard”.
The final column is a numerical grade which represents the percent of staining fungi coverage in percentage in the stem wound of the red oak seedlings as measured on day 28.

[2] = tested on: staining fungi of the ceratocystis variety; test: Staining fungi in stem wound of white oak seedlings after trunk spray (Table 4); assay type: in vivo, ceratocystis (on white oak seedlings)
Procedure: Fourteen days after the stem wounding, wounds were examined for the presence of staining fungi. In creating these for solution were used the buffer and amine oxides were added to the dilute solution of fungicide.
Referring to TABLE 4 wherein a commonly used fungicide, Propiconazole was employed in tests in the amount of 50:200 PPM (parts per million) employed with and without buffered amine oxides systems 3 and 4 with some of the tests employing the 12 carbon length and others, the 1218 carbon mixture. In a preferred embodiment in 1218 on a weight basis, the 12 carbon length will be present in an amount of about 1.3 to 2.0 times the amount of 18 carbon length and in the preferred range about 1.5 to 1.8 times the amount of 18 carbon length. The tests were performed on white oak seedlings which were provided with a stem wound in which was introduced staining fungi which was of the ceratocystis variety.
The method of testing the materials was to spray the trunk of the seedling with the particular solution being tested and 7 days after such application, creating a wound of approximately 2 millimeters by 10 millimeters on each seedling stem. Fourteen days after the wounding, the wounds were examined for the presence of staining fungi.

[3] = fungicide + Amine Oxide 12 (No Buffer) 200:1, PPM: Thiabendazole/Fludioxonil/Azoxystrobin 160, Chlorothalonil 1235, Propiconazole 102, Mancozeb 1097, Vinclozolin 122, Mefenoxam 20
[4] = fungicide + Amine Oxide 1218 (No Buffer) 200:1, PPM: Thiabendazole/Fludioxonil/Azoxystrobin 160, Chlorothalonil 1235, Propiconazole 103, Mancozeb 1097, Vinclozolin 122, Mefenoxam 20
[5] = fungicide + Buffer System 3 200:1, no amine oxide, PPM: Thiabendazole/Fludioxonil/Azoxystrobin 160, Chlorothalonil 1235, Propiconazole 101, Mancozeb 1097, Vinclozolin 122, Mefenoxam 20
[6] = fungicide + buffered amine oxide, Buffer System 3, amine oxide 12, 200:1, PPM: Thiabendazole/Fludioxonil/Azoxystrobin 160, Chlorothalonil 1235, Propiconazole 105, Mancozeb 1097, Vinclozolin 122, Mefenoxam 20
[7] = fungicide + buffered amine oxide, Buffer System 3, amine oxide 1218, 200:1, PPM: Thiabendazole/Fludioxonil/Azoxystrobin 160, Chlorothalonil 1235, Propiconazole 107, Mancozeb 1097, Vinclozolin 122, Mefenoxam 20
[8] = fungicide alone, highest amount, PPM: Thiabendazole/Fludioxonil/Azoxystrobin 640, Chlorothalonil 4940, Propiconazole 400, Mancozeb 4388, Vinclozolin 488, Mefenoxam 80
[9] = fungicide alone, increased amount, PPM: Thiabendazole/Fludioxonil/Azoxystrobin 320, Chlorothalonil 2470, Propiconazole 200, Mancozeb 2194, Vinclozolin 244, Mefenoxam 40
[10] = fungicide alone, PPM: Thiabendazole/Fludioxonil/Azoxystrobin 160, Chlorothalonil 1235, Propiconazole 100, Mancozeb 1097, Vinclozolin 122, Mefenoxam 20

Compound: N#Cc1c(Cl)c(Cl)c(Cl)c(C#N)c1Cl [Chlorothalonil]
- Percent of Staining Fungi Coverage Average (%) in Stem Wound of Red Oak Seedlings (Day 28) [1, 3]: 64%
- Percent of Staining Fungi Coverage Average (%) in Stem Wound of Red Oak Seedlings (Day 28) [1, 4]: 55%
- Percent of Staining Fungi Coverage Average (%) in Stem Wound of Red Oak Seedlings (Day 28) [1, 5]: 72%
- Percent of Staining Fungi Coverage Average (%) in Stem Wound of Red Oak Seedlings (Day 28) [1, 6]: 27%
- Percent of Staining Fungi Coverage Average (%) in Stem Wound of Red Oak Seedlings (Day 28) [1, 7]: 33%
- Percent of Staining Fungi Coverage Average (%) in Stem Wound of Red Oak Seedlings (Day 28) [1, 8]: 37%
- Percent of Staining Fungi Coverage Average (%) in Stem Wound of Red Oak Seedlings (Day 28) [1, 9]: 49%
- Percent of Staining Fungi Coverage Average (%) in Stem Wound of Red Oak Seedlings (Day 28) [1, 10]: 91%

Compound: COCC(=O)N(c1c(C)cccc1C)[C@H](C)C(=O)OC [Mefenoxam]
- Percent of Staining Fungi Coverage Average (%) in Stem Wound of Red Oak Seedlings (Day 28) [1, 3]: 38%
- Percent of Staining Fungi Coverage Average (%) in Stem Wound of Red Oak Seedlings (Day 28) [1, 4]: 25%
- Percent of Staining Fungi Coverage Average (%) in Stem Wound of Red Oak Seedlings (Day 28) [1, 5]: 52%
- Percent of Staining Fungi Coverage Average (%) in Stem Wound of Red Oak Seedlings (Day 28) [1, 6]: 16%
- Percent of Staining Fungi Coverage Average (%) in Stem Wound of Red Oak Seedlings (Day 28) [1, 7]: 21%
- Percent of Staining Fungi Coverage Average (%) in Stem Wound of Red Oak Seedlings (Day 28) [1, 8]: 23%
- Percent of Staining Fungi Coverage Average (%) in Stem Wound of Red Oak Seedlings (Day 28) [1, 9]: 42%
- Percent of Staining Fungi Coverage Average (%) in Stem Wound of Red Oak Seedlings (Day 28) [1, 10]: 64%

Compound: CCCC1COC(Cn2cncn2)(c2ccc(Cl)cc2Cl)O1 (stereo not drawn) [Propiconazole]
- Percent of Seedlings with Staining Fungi in Stem Wound of White Oak ([2]; Propiconazole 50 PPM + buffered amine oxide system 3, amine oxide 12, 200:1): 0%
- Percent of Seedlings with Staining Fungi in Stem Wound of White Oak ([2]; Propiconazole 50 PPM + buffered amine oxide system 3, amine oxide 12, 400:1): 20%
- Percent of Seedlings with Staining Fungi in Stem Wound of White Oak ([2]; Propiconazole 50 PPM + buffered amine oxide system 3, amine oxide 1218, 200:1): 0%
- Percent of Seedlings with Staining Fungi in Stem Wound of White Oak ([2]; Propiconazole 50 PPM + buffered amine oxide system 3, amine oxide 1218, 400:1): 0%
- Percent of Seedlings with Staining Fungi in Stem Wound of White Oak ([2]; Propiconazole 50 PPM + buffered amine oxide system 4, amine oxide 12, 200:1): 0%
- Percent of Seedlings with Staining Fungi in Stem Wound of White Oak ([2]; Propiconazole 50 PPM + buffered amine oxide system 4, amine oxide 12, 400:1): 20%
- Percent of Seedlings with Staining Fungi in Stem Wound of White Oak ([2]; Propiconazole 50 PPM + buffered amine oxide system 4, amine oxide 1218, 200:1): 0%
- Percent of Seedlings with Staining Fungi in Stem Wound of White Oak ([2]; Propiconazole 50 PPM + buffered amine oxide system 4, amine oxide 1218, 400:1): 0%
- Percent of Seedlings with Staining Fungi in Stem Wound of White Oak ([2]; Propiconazole 50 PPM alone, 14 days after wounding): 100%
- Percent of Seedlings with Staining Fungi in Stem Wound of White Oak ([2]; Propiconazole 100 PPM alone, 14 days after wounding): 80%
- Percent of Seedlings with Staining Fungi in Stem Wound of White Oak ([2]; Propiconazole 200 PPM alone, 14 days after wounding): 20%
- Percent of Staining Fungi Coverage Average (%) in Stem Wound of Red Oak Seedlings (Day 28) [1, 3]: 43%
- Percent of Staining Fungi Coverage Average (%) in Stem Wound of Red Oak Seedlings (Day 28) [1, 4]: 55%
- Percent of Staining Fungi Coverage Average (%) in Stem Wound of Red Oak Seedlings (Day 28) [1, 5]: 74%
- Percent of Staining Fungi Coverage Average (%) in Stem Wound of Red Oak Seedlings (Day 28) [1, 6]: 20%
- Percent of Staining Fungi Coverage Average (%) in Stem Wound of Red Oak Seedlings (Day 28) [1, 7]: 44%
- Percent of Staining Fungi Coverage Average (%) in Stem Wound of Red Oak Seedlings (Day 28) [1, 8]: 33%
- Percent of Staining Fungi Coverage Average (%) in Stem Wound of Red Oak Seedlings (Day 28) [1, 9]: 81%
- Percent of Staining Fungi Coverage Average (%) in Stem Wound of Red Oak Seedlings (Day 28) [1, 10]: 85%

Compound: C=CC1(C)OC(=O)N(c2cc(Cl)cc(Cl)c2)C1=O (stereo not drawn) [Vinclozolin]
- Percent of Staining Fungi Coverage Average (%) in Stem Wound of Red Oak Seedlings (Day 28) [1, 3]: 32%
- Percent of Staining Fungi Coverage Average (%) in Stem Wound of Red Oak Seedlings (Day 28) [1, 4]: 16%
- Percent of Staining Fungi Coverage Average (%) in Stem Wound of Red Oak Seedlings (Day 28) [1, 5]: 49%
- Percent of Staining Fungi Coverage Average (%) in Stem Wound of Red Oak Seedlings (Day 28) [1, 6]: 17%
- Percent of Staining Fungi Coverage Average (%) in Stem Wound of Red Oak Seedlings (Day 28) [1, 7]: 38%
- Percent of Staining Fungi Coverage Average (%) in Stem Wound of Red Oak Seedlings (Day 28) [1, 8]: 15%
- Percent of Staining Fungi Coverage Average (%) in Stem Wound of Red Oak Seedlings (Day 28) [1, 9]: 21%
- Percent of Staining Fungi Coverage Average (%) in Stem Wound of Red Oak Seedlings (Day 28) [1, 10]: 43%

Compound: Mancozeb
- Percent of Staining Fungi Coverage Average (%) in Stem Wound of Red Oak Seedlings (Day 28) [1, 3]: 58%
- Percent of Staining Fungi Coverage Average (%) in Stem Wound of Red Oak Seedlings (Day 28) [1, 4]: 30%
- Percent of Staining Fungi Coverage Average (%) in Stem Wound of Red Oak Seedlings (Day 28) [1, 5]: 67%
- Percent of Staining Fungi Coverage Average (%) in Stem Wound of Red Oak Seedlings (Day 28) [1, 6]: 24%
- Percent of Staining Fungi Coverage Average (%) in Stem Wound of Red Oak Seedlings (Day 28) [1, 7]: 30%
- Percent of Staining Fungi Coverage Average (%) in Stem Wound of Red Oak Seedlings (Day 28) [1, 8]: 22%
- Percent of Staining Fungi Coverage Average (%) in Stem Wound of Red Oak Seedlings (Day 28) [1, 9]: 35%
- Percent of Staining Fungi Coverage Average (%) in Stem Wound of Red Oak Seedlings (Day 28) [1, 10]: 74%
